{"source": "paper PMC9926489", "about": "“Chemical Optimization of Selective Pseudomonas aeruginosa LasB Elastase Inhibitors and Their Impact on LasB-Mediated Activation of IL-1β in Cellular and Animal Infection Models” (ACS Infectious Diseases, 2023)", "key": {"[1]": {"target": "T1, rabbit angiotensin-converting enzyme (ACE) (Oryctolagus cuniculus, UniProt P12822)", "T1 construct": "purchased Sigma", "T1 sequence (P12822 34-1310)": "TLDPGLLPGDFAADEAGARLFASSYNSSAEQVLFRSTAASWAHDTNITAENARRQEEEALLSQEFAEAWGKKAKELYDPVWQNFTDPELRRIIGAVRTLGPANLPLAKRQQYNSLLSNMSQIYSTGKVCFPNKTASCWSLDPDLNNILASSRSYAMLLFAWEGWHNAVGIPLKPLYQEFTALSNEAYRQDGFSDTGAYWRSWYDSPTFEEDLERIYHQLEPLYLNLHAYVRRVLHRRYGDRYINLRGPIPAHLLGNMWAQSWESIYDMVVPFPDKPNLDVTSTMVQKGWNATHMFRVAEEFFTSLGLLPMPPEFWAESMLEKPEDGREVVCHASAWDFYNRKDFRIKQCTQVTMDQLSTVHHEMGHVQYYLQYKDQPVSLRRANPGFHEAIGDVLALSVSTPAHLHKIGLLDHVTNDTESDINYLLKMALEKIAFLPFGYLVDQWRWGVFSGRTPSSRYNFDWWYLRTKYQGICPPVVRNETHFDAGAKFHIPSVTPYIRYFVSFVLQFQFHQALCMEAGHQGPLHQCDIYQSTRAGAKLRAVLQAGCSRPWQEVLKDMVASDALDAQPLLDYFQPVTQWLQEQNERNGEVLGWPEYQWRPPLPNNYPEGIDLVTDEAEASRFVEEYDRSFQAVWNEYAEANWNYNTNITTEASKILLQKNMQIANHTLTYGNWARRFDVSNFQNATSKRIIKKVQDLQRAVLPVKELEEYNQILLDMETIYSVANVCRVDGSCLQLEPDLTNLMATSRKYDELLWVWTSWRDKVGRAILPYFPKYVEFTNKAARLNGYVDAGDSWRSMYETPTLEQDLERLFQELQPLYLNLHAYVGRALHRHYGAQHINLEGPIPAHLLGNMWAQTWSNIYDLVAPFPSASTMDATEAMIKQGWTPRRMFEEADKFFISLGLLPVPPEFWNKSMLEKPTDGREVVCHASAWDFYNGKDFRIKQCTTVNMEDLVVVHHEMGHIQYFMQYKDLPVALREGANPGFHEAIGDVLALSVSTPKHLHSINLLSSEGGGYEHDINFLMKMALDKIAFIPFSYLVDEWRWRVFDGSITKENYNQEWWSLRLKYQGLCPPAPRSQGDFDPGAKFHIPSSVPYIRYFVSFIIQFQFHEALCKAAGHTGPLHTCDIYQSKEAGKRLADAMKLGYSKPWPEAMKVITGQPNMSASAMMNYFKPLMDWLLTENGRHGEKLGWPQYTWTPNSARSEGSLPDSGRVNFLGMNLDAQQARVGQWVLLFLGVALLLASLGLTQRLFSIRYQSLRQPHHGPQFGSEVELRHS", "assay": "ACE selectivity assay", "format": "biochemical", "procedure": "Selectivity of compound inhibition was evaluated against other proteases at concentrations between 0.4 and 200 μM. Activity against rabbit angiotensin-converting enzyme (ACE, Sigma) was assessed using 10 μM fluorogenic substrate Abz-Phe-Arg-Lys(Dnp)-P (Enzo Life Sciences) in 100 mM Tris-HCl pH 7, 50 mM NaCl, 10 μM Zn SO4. Activity against human matrix metalloproteases (MMP)-2 and MMP-9 was assessed in 50 mM HEPES pH 7.5, 10 mM CaCl2, 0.01% Triton X-100 using 4 μM fluorogenic substrate Mca-Pro-Leu-Gly-Leu-Dpa-Ala-Arg-NH2 (Enzo Life Sciences). Activity against MMP-1 and MMP-13 was assessed in 25 mM HEPES pH 7.5, 100 mM NaCl, 100 mM CaCl2, 0.0005% Brij using 7.5 μM fluorogenic substrate Mca-Lys-Pro-Leu-Gly-Leu-Dpa-Ala-Arg-NH2 (Sigma) for MMP-1 and 1.25 μM fluorogenic substrate Mca-Pro-Cha-Gly-Nva-His-Ala-Dpa-NH2 (Millipore) for MMP-13. Activity against human neutrophil elastase (HNE, Enzo Life Sciences) was assessed in 100 mM HEPES pH 7.5, 500 mM NaCl, 0.01% of Triton X-100 using 100 μM fluorogenic substrate MeOSuc-AAPV-AMC (Enzo Life Sciences)."}, "P. aeruginosa PAO1": {"tested_on": "P. aeruginosa PAO1", "assay": "Mouse P. aeruginosa lung infection model, bacterial numbers (CFUs) in lung homogenates", "format": "in vivo", "settings": "C57Bl/6 mice, 24 h", "procedure": "To investigate if compounds 12 and 16 were able to engage the LasB target in vivo, in the context of a P. aeruginosa lung infection, and to determine the consequences of that inhibition, immunocompetent C57Bl/6 mice were infected intranasally with P. aeruginosa PAO1 and treated with two doses of inhibitors, 10 and 30 mg/kg, administered IV at 1 and 4 h post-infection (Figure 5A). A control group of PAO1-infected animals treated with vehicle and a group of animals infected with the isogenic ΔlasB strain were included in the study. Mice were euthanized 24 h post-infection and their lung homogenates assayed for activated mature IL-1β (using the IL-1 reporter assay) and bacterial numbers (by CFU enumeration).\nInfection experiments were approved by the Institutional Animal Care and Use Committee of Emory University. To prepare the bacterial inoculum, P. aeruginosa PAO1 (or its ΔlasB derivative) was grown in Luria broth with shaking at physiologic (37 °C) temperature for 18 h to maximally express LasB (at late log phase). Bacteria were then harvested, washed, and diluted in sterile phosphate-buffered saline (PBS) for delivery of 10^9 colony-forming units (CFUs) in 40 μL. For infection, female C57Bl/6 mice (five/group) were sedated using isofluorane and the bacterial suspension was slowly administered via micropipette between the nostrils and the animals were allowed to aspirate the inoculum via the normal breathing process. Compounds 12 and 16 were administered in PBS via injection (100 μL volume) to achieve doses of 10 and 30 mg/kg. The mice were euthanized 24 h post-infection and the lungs were excised. Active IL-1β was quantified by adding 100 μL of cell-free homogenate to IL-1β responsive HEK IL-1R-lux reporter cells. Activity was assayed by luminescence measured with D-luciferin substrate (Steady-Luc, Biotium) on a multimode reader (PerkinElmer) and expressed as relative luminescence units (RU). CFU was enumerated by dilution plating on Luria agar. Statistics were calculated by ANOVA with a Dunnett post-test."}, "[2]": {"settings": "30 mg/kg IV at 1 and 4 h post-infection"}}, "note": "Where two headings read alike, the source gives them in different places."}
{"smiles": "COc1cc2sc(CNC(=O)C3(CC(=O)O)Cc4cc(F)c(F)cc4C3)nc2cc1OCCC[N+](C)(CCO)CCO", "note": "[Compound 16]", "values": [{"measurement": "IC50", "setting": "[1]", "result": "> 200", "unit": "µM"}, {"measurement": "log reduction in bacterial numbers (CFUs) in lung", "setting": "P. aeruginosa PAO1; [2]", "result": 0.47, "unit": "log"}]}
{"smiles": "COc1cc2sc(CNC(=O)C3(CC(=O)O)Cc4ccccc4C3)nc2cc1OCCC[N+](C)(C)C", "note": "[Compound 12]", "values": [{"measurement": "IC50", "setting": "[1]; rabbit ACE, read-out: selectivity IC50, ACE", "result": "> 200", "unit": "µM"}, {"measurement": "log reduction in bacterial numbers (CFUs) in lung", "setting": "P. aeruginosa PAO1; 10 mg/kg IV at 1 and 4 h post-infection", "result": 0.48, "unit": "log"}, {"measurement": "log reduction in bacterial numbers (CFUs) in lung", "setting": "P. aeruginosa PAO1; [2]", "result": 0.69, "unit": "log"}]}
